{
  "source": "paper PMC6224419",
  "about": "“Structural Studies based on two Lysine Dioxygenases with Distinct Regioselectivity Brings Insights Into Enzyme Specificity within the Clavaminate Synthase-Like Family” (Scientific Reports, 2018)",
  "key": {"[1]": {"target": "T1, KDO5 (Flavobacterium sp. CF136, UniProt J3BZS6)", "T1 construct": "gene PMI10_03368; hexa-histidine tail (pET-22b(+)), E. coli BL21(DE3); tetramer in solution; first ordered residue Ala13", "experiment": "X-ray crystal structure (soak)", "type": "binding", "settings": "active site"}, "[2]": {"target": "T2, KDO1 (Catenulispora acidiphila, UniProt C7QJ42)", "T2 construct": "gene Caci_0231; hexa-histidine tail (pET-22b(+)), E. coli BL21(DE3); dimer in solution; first ordered residue Glu30", "T2 sequence (C7QJ42 1-358)": "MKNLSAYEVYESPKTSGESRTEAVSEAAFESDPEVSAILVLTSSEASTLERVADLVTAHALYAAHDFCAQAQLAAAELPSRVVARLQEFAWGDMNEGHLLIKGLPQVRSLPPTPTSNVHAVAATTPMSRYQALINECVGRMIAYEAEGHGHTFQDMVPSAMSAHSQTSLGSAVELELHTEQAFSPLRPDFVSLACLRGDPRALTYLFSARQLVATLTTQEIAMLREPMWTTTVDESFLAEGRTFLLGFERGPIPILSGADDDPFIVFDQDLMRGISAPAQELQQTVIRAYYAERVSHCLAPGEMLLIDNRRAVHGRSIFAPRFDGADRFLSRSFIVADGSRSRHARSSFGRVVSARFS", "type": "binding", "settings": "active site"}, "[3]": {"target": "the molecule itself", "experiment": "SEC; analytic gel filtration on Superdex 200 Increase 10/300 GL, 100 µL purified protein, 50 mM Tris-HCl pH 8.0, 50 mM NaCl, 10% glycerol, 0.3 ml/min; oligomeric state from elution volume against a calibration curve; data not shown"}, "[4]": {"settings": "FeSO4/dithionite soak, monomer C"}},
  "note": "Where two headings read alike, the source gives them in different places.",
  "data": [
    {"molecule": "O=C(O)CCC(=O)O", "note": "[succinate]", "values": [
      {"measurement": "X-ray crystal structure (soak)", "setting": "[1]; crystals soaked with L-lysine and α-ketoglutarate, FeSO4/dithionite, monomer D", "value": "The succinate resultant from the oxidative decarboxylation of the α-KG, makes H-bond Tyr193"}
    ]},
    {"molecule": "O=C(O)CCC(=O)C(=O)O", "note": "[α-KG]", "values": [
      {"measurement": "X-ray crystal structure (soak)", "setting": "[1]; FeSO4/dithionite soak, bidentate to iron, monomer A", "value": "In α-KG bound structure, α-KG is best defined for monomer A"},
      {"measurement": "X-ray crystal structure (soak)", "setting": "[2]; FeSO4/dithionite soak, bidentate to iron, monomer B", "value": "In the α-KG crystals, the structure shows a well ordered α-KG in monomer B"}
    ]},
    {"molecule": "NCCCC[C@H](N)C(=O)O", "note": "[L-lysine]", "values": [
      {"measurement": "X-ray crystal structure (soak)", "setting": "[1]; [4]", "value": "the carboxylate of L-lysine substrate is stabilized by salt bridges with the Arg338"},
      {"measurement": "X-ray crystal structure (soak)", "setting": "[2]; [4]", "value": "In KDO1, the L-lysine complex shows a well ordered lysine in monomer C"}
    ]},
    {"molecule": "NCCC[C@H](O)[C@H](N)C(=O)O", "note": "[(3S)-3-hydroxy-L-lysine]", "values": [
      {"measurement": "X-ray crystal structure (soak)", "setting": "[2]; FeSO4/dithionite soak with succinate, monomer B", "value": "The (3S)-3-hydroxy-L-lysine makes salt bridges with Glu180"}
    ]},
    {"molecule": "KDO1 from Catenulispora acidiphila (L-lysine dioxygenase, C-3 regioselective) (enzyme, UniProt C7QJ42 1-358, looked up, KDO1, iron(II)/alpha-ketoacid-dependent lysine dioxygenase of Catenulispora acidiphila; Cloned into pET-22b(+) with a hexa-histidine tail; Dimer in solution; four molecules (two dimers) in the asymmetric unit; First ordered residue in the crystals is Glu30; also called K DiOxygenase 1; source: E. coli BL21(DE3), purified (Ni-NTA)) MKNLSAYEVYESPKTSGESRTEAVSEAAFESDPEVSAILVLTSSEASTLERVADLVTAHALYAAHDFCAQAQLAAAELPSRVVARLQEFAWGDMNEGHLLIKGLPQVRSLPPTPTSNVHAVAATTPMSRYQALINECVGRMIAYEAEGHGHTFQDMVPSAMSAHSQTSLGSAVELELHTEQAFSPLRPDFVSLACLRGDPRALTYLFSARQLVATLTTQEIAMLREPMWTTTVDESFLAEGRTFLLGFERGPIPILSGADDDPFIVFDQDLMRGISAPAQELQQTVIRAYYAERVSHCLAPGEMLLIDNRRAVHGRSIFAPRFDGADRFLSRSFIVADGSRSRHARSSFGRVVSARFS", "values": [
      {"measurement": "stoichiometry N", "setting": "[3]", "value": 2}
    ]},
    {"molecule": "KDO5 from Flavobacterium sp. (L-lysine dioxygenase, C-4 regioselective) (enzyme, UniProt J3BZS6 1-372, looked up, KDO5, iron(II)/alpha-ketoacid-dependent lysine dioxygenase of Flavobacterium sp; Cloned into pET-22b(+) with a hexa-histidine tail; Tetramer in solution; four molecules (two dimers) in the asymmetric unit; First ordered residue in the crystals is Ala13; also called K DiOxygenase 5; source: E. coli BL21(DE3), purified (Ni-NTA)) MKSQSIMSVERSAETSLTLEIPTSPLIIKITQQERNILSNVGNLLVKAFGNYENPDYIASLHLHAFQLLPERITRILSQFGSDFSAEQYGAIVFQGLIEVDQDDLGPTPPNWQGADYGKLNKYGFICSLLHGAVPSKPVQYYAQRKGGGLLHAVIPDEKMAATQTGSGSKTDLFVHTEDAFLSNQADFLSFLYLRNEERVPSTLYSIRSHGKMNPVMKKLFEPIYQCPKDANYNDEDVANSGPTASVLYGNRELPFIRFDAAEQIFNENAGQTSEALGNLMDFWDEAKTLINSDYIPNSGDLIFVNNHLCAHGRSAFIAGQRIENGEIIKCERRQMLRMMSKTSLIHIRSVTRTDDPYFIMEEHLGKIFDLD", "values": [
      {"measurement": "stoichiometry N", "setting": "[3]", "value": 4}
    ]}
  ]
}
